# Laboratory results published in patent publication US8623859B2, “Bradykinin B1 antagonists” (Evotec AG, priority 2008, dated 2014).
# Counter-ions that a name gives are not always drawn.
# Molecular target: T1, human B1 (Homo sapiens, UniProt P46663)
# T1 construct: host or cells: CHO-K1
# T1 sequence (P46663 1-353): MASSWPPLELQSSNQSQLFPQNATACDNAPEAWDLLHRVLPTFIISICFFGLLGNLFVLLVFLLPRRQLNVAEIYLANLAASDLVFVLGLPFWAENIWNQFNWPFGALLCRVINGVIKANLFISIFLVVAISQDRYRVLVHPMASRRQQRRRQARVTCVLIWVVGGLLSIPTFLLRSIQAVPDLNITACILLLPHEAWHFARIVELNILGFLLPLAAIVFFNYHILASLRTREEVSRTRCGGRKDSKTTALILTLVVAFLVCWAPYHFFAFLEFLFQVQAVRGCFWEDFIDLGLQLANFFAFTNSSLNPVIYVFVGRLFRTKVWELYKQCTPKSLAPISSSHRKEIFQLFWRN
# Test: Calcium flux assay for Bradykinin B1 antagonist, CHO-K1 cell line expressing human B1
# Assay type: cell-based
# Settings: CHO-K1 cells expressing human B1, agonist Lys-(Des-Arg)-Bradykinin, read-out: Potency (IC50 value against human B1)
# Method in brief: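 CHO-K1 cells expressing human B1, loaded with 5 μM Fluo-4AM (2 h, 37° C) in HEPES buffer pH 7.4 with probenecid and 0.1% BSA, were preincubated 30 min at 25° C with compound (8 concentrations, triplicate, 1% DMSO) before B1 agonist addition. Ca2+ fluorescence monitored at 538 nm; background-normalized integrated values plotted against log antagonist concentration.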
row,IC50 [nM],Structure (SMILES)
1,10 to 100,"COc1cc(C)c(S(=O)(=O)N(C)Cc2nc(C(=O)N3CCN(CCCN4CCCC4)CC3)no2)c(C)c1 [Ex 325, 4-Methoxy-N,2,6-trimethyl-N-[(3-{[4-(3-pyrrolidin-1-ylpropyl)piperazin-1-yl]carbonyl}-1,2,4-oxadiazol-5-yl)methyl]benzenesulfonamide]"
2,10 to 100,"COc1cc(C)c(S(=O)(=O)N(C)Cc2nc(C(=O)N(C)Cc3ccc(CN4CCC(N(C)C)C4)cc3)co2)c(C)c1 (stereo not shown) [Ex 177, N-(4-{[3-(Dimethylamino)pyrrolidin-1-yl]methyl}benzyl)-2-({[(4-methoxy-2,6-dimethylphenyl)sulfonyl](methyl)amino}methyl)-N-methyl-1,3-oxazole-4-carboxamide]"
3,< 10,"COc1cc(C)c(S(=O)(=O)N(Cc2nc(C(=O)N3CCN(Cc4cccnc4N)CC3)co2)C2CC2)c(C)c1 [Ex 253, N-{[4-({4-[(2-Aminopyridin-3-yl)methyl]piperazin-1-yl}carbonyl)-1,3-oxazol-2-yl]methyl}-N-cyclopropyl-4-methoxy-2,6-dimethylbenzenesulfonamide]"
4,100 to 1000,"COc1cc(C)c(S(=O)(=O)N(C)Cc2cc(C(=O)NCc3cccc(CN4CCCC4)c3)co2)c(C)c1 [Ex 11, 5-({[(4-methoxy-2,6-dimethylphenyl)sulfonyl](methyl)amino}methyl)-N-[3-(pyrrolidin-1-ylmethyl)benzyl]furan-3-carboxamide]"
5,100 to 1000,"Cc1cc(S(=O)(=O)N(C)Cc2cc(C(=O)N(C)CCc3ccc(C4=NCCN4)cc3)co2)c(C)cc1Cl [Ex 28, 5-({[(4-chloro-2,5-dimethylphenyl)sulfonyl](methyl)amino}methyl)-N-{2-[4-(4,5-dihydro-1H-imidazol-2-yl)phenyl]ethyl}-N-methylfuran-3-carboxamide]"
6,10 to 100,"COc1cc(C)c(S(=O)(=O)N(Cc2cc(C(=O)N(C)Cc3ccc(CN4CCC(OC)CC4)cc3)co2)C2CC2)c(C)c1 [Ex 143, 5-({Cyclopropyl[(4-methoxy-2,6-dimethylphenyl)sulfonyl]amino}methyl)-N-{4-[(4-methoxypiperidin-1-yl)methyl]benzyl}-N-methylfuran-3-carboxamide]"
7,< 10,"COc1cc(C)c(S(=O)(=O)N(C)Cc2nnc(C(=O)N3CCN(Cc4cnc5ccccc5c4)CC3)o2)c(C)c1 [Ex 296, 4-Methoxy-N,2,6-trimethyl-N-[(5-{[4-(quinolin-3-ylmethyl)piperazin-1-yl]carbonyl}-1,3,4-oxadiazol-2-yl)methyl]benzenesulfonamide]"
8,100 to 1000,"COc1cc(C)c(S(=O)(=O)N(C)Cc2ccc(C(=O)N3CCN(C4CCN(C)CC4)CC3)o2)c(C)c1 [Ex 62, 4-Methoxy-N,2,6-trimethyl-N-[(5-{[4-(1-methylpiperidin-4-yl)piperazin-1-yl]carbonyl}furan-2-yl)methyl]benzenesulfonamide]"
9,< 10,"COc1cc(C)c(S(=O)(=O)N(Cc2nnc(C(=O)N3CCN(CC4CCN(C)CC4)CC3)o2)C2CC2)c(C)c1 [Ex 272, N-Cyclopropyl-4-methoxy-2,6-dimethyl-N-{[5-({4-[(1-methylpiperidin-4-yl)methyl]piperazin-1-yl}carbonyl)-1,3,4-oxadiazol-2-yl]methyl}benzenesulfonamide]"
10,100 to 1000,"COc1cc(C)c(S(=O)(=O)N(C)Cc2cc(C(=O)N(C)CCc3ccc(C4=NCCN4)cc3)c(C)o2)c(C)c1 [Ex 59, N-{2-[4-(4,5-dihydro-1H-imidazol-2-yl)phenyl]ethyl}-5-({[(4-methoxy-2,6-dimethylphenyl)sulfonyl](methyl)amino}methyl)-N,2-dimethylfuran-3-carboxamide]"
11,100 to 1000,"COc1cc(C)c(S(=O)(=O)N(Cc2cc(C(=O)N3CCN(CCc4ccncc4)CC3)co2)C2CC2)c(C)c1 [Ex 110, N-Cyclopropyl-4-methoxy-2,6-dimethyl-N-[(4-{[4-(2-pyridin-4-ylethyl)piperazin-1-yl]carbonyl}furan-2-yl)methyl]benzenesulfonamide trifluoroacetate]"
12,10 to 100,"COc1cc(C)c(S(=O)(=O)N(C)Cc2noc(C(=O)N3CCN(CCCN(C)C)CC3)n2)c(C)c1 [Ex 309, N-{[5-({4-[3-(Dimethylamino)propyl]piperazin-1-yl}carbonyl)-1,2,4-oxadiazol-3-yl]methyl}-4-methoxy-N,2,6-trimethylbenzenesulfonamide]"
13,100 to 1000,"COc1cc(C)c(S(=O)(=O)N(Cc2nc(C(=O)N3CCC(N(C)C4CCN(C)CC4)C3)co2)C2CC2)c(C)c1 (stereo not shown) [Ex 208, N-Cyclopropyl-4-methoxy-2,6-dimethyl-N-{[4-({3-[methyl(1-methylpiperidin-4-yl)amino]pyrrolidin-1-yl}carbonyl)-1,3-oxazol-2-yl]methyl}benzenesulfonamide trifluoroacetate]"
14,< 10,"COc1cc(C)c(S(=O)(=O)N(Cc2cc(C(=O)N(C)CCc3ccc(C4=NCCN4)cc3)co2)C2CCC2)c(C)c1 [Ex 51, 5-({Cyclobutyl[(4-methoxy-2,6-dimethylphenyl)sulfonyl]amino}methyl)-N-{2-[4-(4,5-dihydro-1H-imidazol-2-yl)phenyl]ethyl}-N-methylfuran-3-carboxamide]"
15,< 10,"COc1cc(C)c(S(=O)(=O)N(C)Cc2nc(C(=O)N(C)Cc3ccc(CN4CCCC(O)C4)cc3)co2)c(C)c1 (stereo not shown) [Ex 179, N-{4-[(3-Hydroxypiperidin-1-yl)methyl]benzyl}-2-({[(4-methoxy-2,6-dimethylphenyl)sulfonyl](methyl)amino}methyl)-N-methyl-1,3-oxazole-4-carboxamide]"
16,< 10,"COc1cc(C)c(S(=O)(=O)N(Cc2nc(C(=O)N3CCN(CCN4CCCCC4)CC3)co2)C2CC2)c(C)c1 [Ex 194, N-Cyclopropyl-4-methoxy-2,6-dimethyl-N-[(4-{[4-(2-piperidin-1-ylethyl)piperazin-1-yl]carbonyl}-1,3-oxazol-2-yl)methyl]benzenesulfonamide trifluoroacetate]"
17,< 10,"COc1cc(C)c(S(=O)(=O)N(C)Cc2nc(C(=O)N(C)Cc3cccc(CN4CCCC4)c3)co2)c(C)c1 [Ex 73, 2-({[(4-Methoxy-2,6-dimethylphenyl)sulfonyl](methyl)amino}methyl)-N-methyl-N-[3-(pyrrolidin-1-ylmethyl)benzyl]-1,3-oxazole-4-carboxamide]"
18,100 to 1000,"COc1cc(C)c(S(=O)(=O)N(C)Cc2nnc(C(=O)N(C)Cc3nc(CN4CCCC4)cs3)o2)c(C)c1 [Ex 286, 5-({[(4-Methoxy-2,6-dimethylphenyl)sulfonyl](methyl)amino}methyl)-N-methyl-N-{[4-(pyrrolidin-1-ylmethyl)-1,3-thiazol-2-yl]methyl}-1,3,4-oxadiazole-2-carboxamide]"
19,100 to 1000,"COc1cc(C)c(S(=O)(=O)N(C)Cc2nnc(C(=O)N3CCN(CC4CCCN(C)C4)CC3)o2)c(C)c1 (stereo not shown) [Ex 278, 4-Methoxy-N,2,6-trimethyl-N-{[5-({4-[(1-methylpiperidin-3-yl)methyl]piperazin-1-yl}carbonyl)-1,3,4-oxadiazol-2-yl]methyl}benzenesulfonamide]"
20,10 to 100,"COc1cc(C)c(S(=O)(=O)N(C)Cc2cc(C(=O)N(C)Cc3ccc(C4=NCCN4)cc3)c(C)o2)c(C)c1 [Ex 58, N-[4-(4,5-dihydro-1H-imidazol-2-yl)benzyl]-5-({[(4-methoxy-2,6-dimethylphenyl)sulfonyl](methyl)amino}methyl)-N,2-dimethylfuran-3-carboxamide]"
21,< 10,"COc1cc(C)c(S(=O)(=O)N(Cc2cc(C(=O)N(C)Cc3ccc(CN4CCCC(O)C4)cc3)co2)C2CC2)c(C)c1 (stereo not shown) [Ex 142, 5-({Cyclopropyl[(4-methoxy-2,6-dimethylphenyl)sulfonyl]amino}methyl)-N-{4-[(3-hydroxypiperidin-1-yl)methyl]benzyl}-N-methylfuran-3-carboxamide]"
22,10 to 100,"COc1cc(C)c(S(=O)(=O)N(C)Cc2cc(C(=O)N(C)Cc3ccc(CN4CCC(O)CC4)cc3)co2)c(C)c1 [Ex 126, N-{4-[(4-Hydroxypiperidin-1-yl)methyl]benzyl}-5-({[(4-methoxy-2,6-dimethylphenyl)sulfonyl](methyl)amino}methyl)-N-methylfuran-3-carboxamide]"
23,< 10,"COc1cc(C)c(S(=O)(=O)N(C)Cc2nnc(C(=O)N3CCN(Cc4c[nH]c(C)n4)CC3)o2)c(C)c1 [Ex 292, 4-Methoxy-N,2,6-trimethyl-N-{[5-({4-[(2-methyl-1H-imidazol-4-yl)methyl]piperazin-1-yl}carbonyl)-1,3,4-oxadiazol-2-yl]methyl}benzenesulfonamide]"
24,10 to 100,"COc1cc(C)c(S(=O)(=O)N(C)Cc2nnc(C(=O)N(C)Cc3ccc(CN4CCCC4)cc3)o2)c(C)c1 [Ex 268, 5-({[(4-Methoxy-2,6-dimethylphenyl)sulfonyl](methyl)amino}methyl)-N-methyl-N-[4-(pyrrolidin-1-ylmethyl)benzyl]-1,3,4-oxadiazole-2-carboxamide trifluoroacetate]"
25,< 10,"COc1cc(C)c(S(=O)(=O)N(C)Cc2noc(C(=O)NCCc3ccc(C4=NCCN4)cc3)n2)c(C)c1 [Ex 64, N-{2-[4-(4,5-dihydro-1H-imidazol-2-yl)phenyl]ethyl}-3-({[(4-methoxy-2,6-dimethylphenyl)sulfonyl](methyl)amino}methyl)-1,2,4-oxadiazole-5-carboxamide]"
